Measured values reported in patent US20240400512A1, “ANALOGS OF N,N,N-TRIMETHYL-4-PHOSPHORYLOXYTRYPTAMINE” (Terran Biosciences Inc., priority 2021, published 2024).

Test: Metabolic stability in human liver microsomes
Assay type: in vitro ADME
Settings: for in vitro clearance compared with 4-OH-Trimethyltryptamine iodide (reference compound A) / in vitro clearance compared with 4-OH-Dimethylethyltryptamine iodide (reference compound B) / half-life and intrinsic clearance compared to the respective reference compounds: based on Table 2; for half-life at 0.25 μM / microsomal CLint at 0.25 μM: pH 7.4, NADPH; for half-life at 0.25 μM / microsomal CLint at 0.25 μM / CLint (μL/min/mg protein) / t1/2: 37° C.; for microsomal CLint at 0.25 μM: read-out: CLint (μL/min/mg protein); for Minus cofactor control (% of 0 min): incubation without cofactor, comment: possible chemical instability or non-cofactor dependent enzymatic degradation; for CLint (μL/min/mg protein) / t1/2: NADPH
Description: Microsomal Assay: Human liver microsomes (20 mg/mL) are obtained. B-nicotinamide adenine dinucleotide phosphate, reduced form (NADPH), magnesium chloride (MgCl2), and dimethyl sulfoxide (DMSO) are purchased from Sigma-Aldrich.
Determination of Metabolic Stability: 7.5 mM stock solutions of test compounds are prepared in DMSO. […] The diluted microsomes are added to wells of a 96-well deep-well polypropylene plate in triplicate. […] Reactions are initiated by addition of pre-warmed NADPH solution. The final reaction volume is 0.5 mL and contains 4.0 mg/mL human liver microsomes, 0.25 μM test compound, 2 mM NADPH in 0.1 M potassium phosphate buffer, pH 7.4, and 3 mM MgCl2. The reaction mixtures are incubated at 37° C., and 50 pL aliquots are removed at 0, 5, 10, 20, and 30 min or other suitable interval and added to shallow-well 96-well plates containing 50 pL of ice-cold CAN (acetonitrile) with internal standard to stop the reactions. The plates are stored at 4° C. for 20 minutes after which 100 pL of water is added to the wells of the plate before centrifugation to pellet precipitated proteins. Supernatants are transferred to another 96-well plate and analysed for amounts of the test compound remaining by LC-MS/MS using, for example, an Applied Bio-systems API 4000®) mass spectrometer. The same procedure is followed for the non-deuterated counterparts of the test compounds and for the positive control, 7-ethoxy coumarin (1 μM). Testing can be done in triplicate.
Data analysis: The in vitro T1/2s for the test compounds is calculated from the slopes of the linear regression of % test compound remaining (In) vs incubation time.
where k=−[slope of linear regression of % parent remaining (In) vs incubation time. The apparent intrinsic clearance is calculated using the following equation: […]
Data analysis can be performed using Microsoft Excel® Software.

| Structure (SMILES) | in vitro clearance compared with 4-OH-Trimethyltryptamine iodide (reference compound A) | half-life at 0.25 μM | microsomal CLint at 0.25 μM | in vitro clearance compared with 4-OH-Dimethylethyltryptamine iodide (reference compound B) | half-life and intrinsic clearance compared to the respective reference compounds | Minus cofactor control (% of 0 min) | CLint (μL/min/mg protein) | t1/2 |
| --- | --- | --- | --- | --- | --- | --- | --- | --- |
| [2H]C([2H])(c1c[nH]c2cccc(O)c12)C([2H])([2H])[N+](C)(C)C.[I-] [Compound 1, 4-Hydroxy-3-(2-(trimethyl-λ^4-azaneyl)ethyl-1,1,2,2-d4)-1H-indole iodide] | significantly lower in vitro clearance | 4.12 h | 5.6 µL/min/mg |  |  |  |  |  |
| [2H]C([2H])(c1c[nH]c2cccc(O)c12)C([2H])([2H])[N+](C)(C)CC.[I-] [Compound 2, 3-(2-(Ethyldimethyl-λ^4-azaneyl)ethyl-1,1,2,2-d4)-4-hydroxy-1H-indole iodide] |  | 8.23 h | 2.81 µL/min/mg | significantly lower in vitro clearance |  |  |  |  |
| [2H]C([2H])(c1c[nH]c2cccc(O)c12)C([2H])([2H])[N+](C)(C)CCC.[I-] [Compound 3, 3-(2-(Dimethyl(propyl)-λ^4-azaneyl)ethyl-1,1,2,2-d4)-4-hydroxy-1H-indole iodide] |  | 16.2 h | 1.42 µL/min/mg |  |  |  |  |  |
| [2H]C([2H])(c1c[nH]c2cccc(O)c12)C([2H])([2H])[N+](C([2H])([2H])[2H])(C([2H])([2H])[2H])C([2H])([2H])[2H].[I-] [Compound 4, 4-Hydroxy-3-(2-(tris(methyl-d3)-λ^4-azaneyl)ethyl-1,1,2,2-d4)-1H-indole iodide] | significantly lower in vitro clearance | 57.7 h | 0.401 µL/min/mg |  |  |  |  |  |
| [2H]C([2H])(c1c[nH]c2cccc(O)c12)C([2H])([2H])[N+](C)(C([2H])([2H])[2H])C([2H])([2H])[2H].[I-] [Compound 5, 4-Hydroxy-3-(2-(methylbis(methyl-d3)-λ^4-azaneyl)ethyl-1,1,2,2-d4)-1H-indole iodide] | significantly lower in vitro clearance | 101 h | 0.228 µL/min/mg |  |  |  |  |  |
| [2H]C([2H])(c1c[nH]c2cccc(O)c12)C([2H])([2H])[N+](CC)(C([2H])([2H])[2H])C([2H])([2H])[2H].[I-] [Compound 6, 3-(2-(Ethylbis(methyl-d3)-λ^4-azaneyl)ethyl-1,1,2,2-d4)-4-hydroxy-1H-indole iodide] |  | 5.28 h | 4.38 µL/min/mg | significantly lower in vitro clearance |  |  |  |  |
| [2H]C([2H])(c1c[nH]c2cccc(OC(C)=O)c12)C([2H])([2H])[N+](C)(C)C.[I-] [Compound 7, 4-Acetoxy-3-(2-(trimethyl-λ^4-azaneyl)ethyl-1,1,2,2-d4)-1H-indole iodide] |  | 0.778 h | 29.7 µL/min/mg |  | exhibit differences in half-life and intrinsic clearance | Minus cofactor control low (52% of 0 min). |  |  |
| [2H]C([2H])(c1c[nH]c2cccc(OC(C)=O)c12)C([2H])([2H])[N+](C)(C)CC.[I-] [Compound 8, 4-Acetoxy-3-(2-(ethyldimethyl-λ^4-azaneyl)ethyl-1,1,2,2-d4)-1H-indole iodide] |  | 0.477 h | 48.4 µL/min/mg |  | exhibit differences in half-life and intrinsic clearance | Minus cofactor control low (37% of 0 min). |  |  |
| [2H]C([2H])(c1c[nH]c2cccc(OC(C)=O)c12)C([2H])([2H])[N+](C)(C)CCC.[I-] [Compound 9, 4-Acetoxy-3-(2-(dimethyl(propyl)-λ^4-azaneyl)ethyl-1,1,2,2-d4)-1H-indole iodide] |  | 0.312 h | 74.3 µL/min/mg |  | exhibit differences in half-life and intrinsic clearance | Minus cofactor control low (20% of 0 min). |  |  |
| [2H]C([2H])(c1c[nH]c2cccc(OC(C)=O)c12)C([2H])([2H])[N+](C([2H])([2H])[2H])(C([2H])([2H])[2H])C([2H])([2H])[2H].[I-] [Compound 10, 4-Acetoxy-3-(2-(tris(methyl-d3)-λ^4-azaneyl)ethyl-1,1,2,2-d4)-1H-indole iodide] |  | 0.775 h | 29.8 µL/min/mg |  | exhibit differences in half-life and intrinsic clearance | Minus cofactor control low (44% of 0 min). |  |  |
| [2H]C([2H])(c1c[nH]c2cccc(OC(C)=O)c12)C([2H])([2H])[N+](C)(C([2H])([2H])[2H])C([2H])([2H])[2H].[I-] [Compound 11, 4-Acetoxy-3-(2-(methylbis(methyl-d3)-λ^4-azaneyl)ethyl-1,1,2,2-d4)-1H-indole iodide] |  | 0.797 h | 29 µL/min/mg |  | exhibit differences in half-life and intrinsic clearance | Minus cofactor control low (51% of 0 min). |  |  |
| [2H]C([2H])(c1c[nH]c2cccc(OC(C)=O)c12)C([2H])([2H])[N+](CC)(C([2H])([2H])[2H])C([2H])([2H])[2H].[I-] [Compound 12, 4-Acetoxy-3-(2-(ethylbis(methyl-d3)-λ^4-azaneyl)ethyl-1,1,2,2-d4)-1H-indole iodide] |  | 0.558 h | 41.4 µL/min/mg |  | exhibit differences in half-life and intrinsic clearance | Minus cofactor control low (40% of 0 min). |  |  |
| COc1ccc2c(c1)[C@]13CCCC[C@@H]1[C@H](C2)N(C)CC3 [dextromethorphan, reference compound] |  |  |  |  |  |  | 54.9 μL/min/mg protein | 25.3 min |
| C[N+](C)(C)CCc1c[nH]c2cccc(O)c12.[I-] [reference compound A, 4-OH-Trimethyltryptamine iodide, reference compound] |  |  |  |  |  |  | 6.81 μL/min/mg protein | 204 min |
| CC[N+](C)(C)CCc1c[nH]c2cccc(O)c12.[I-] [reference compound B, 4-OH-Dimethylethyltryptamine iodide, reference compound] |  |  |  |  |  |  | 5.41 μL/min/mg protein | 256 min |
| CC(=O)Oc1cccc2[nH]cc(CC[N+](C)(C)C)c12.[I-] [reference compound D, 4-OAc-Trimethyltryptamine iodide, reference compound] |  |  |  |  |  | Minus cofactor control low (51% of 0 min). | 28.3 μL/min/mg protein | 48.9 min |
| CC[N+](C)(C)CCc1c[nH]c2cccc(OC(C)=O)c12.[I-] [reference compound E, 4-OAc-Dimethylethyltryptamine iodide, reference compound] |  |  |  |  |  | Minus cofactor control low (38% of 0 min). | 46.4 μL/min/mg protein | 29.9 min |
| CCC[N+](C)(C)CCc1c[nH]c2cccc(OC(C)=O)c12.[I-] [reference compound F, 4-OAc-Dimethylpropyltryptamine iodide, reference compound] |  |  |  |  |  | Minus cofactor control low (27% of 0 min). | 62.7 μL/min/mg protein | 22.1 min |
